Experimental data as given in US20240299353A1, “COMPOSITIONS AND METHODS FOR TREATING […] 5-MEO-DMT” (Alvarius Pharmaceuticals Ltd., priority 2021, published 2024).

Assays:
BDNF = assay: Western blot of BDNF in brain regions, chronic cocaine ± 5-MeO-DMT; format: in vivo, Male Wistar rats; conditions: for BDNF expression: 24 h; for BDNF levels: 120 h
Source text: (§1) Male Wistar rats aged 7 weeks were acclimatized to the facility for 1 week prior to the beginning of the study. […] Animals were euthanized 23- or 119-hours following vehicle or 5-MeO-DMT administration.
(§2) Following euthanasia brain regions of interest were isolated. Briefly, the olfactory bulbs were removed before the brain was placed in a rat brain matrix (FIG. 2A). Sterile blades were inserted at positions 2 and 3 (FIG. 2B) to extract a coronal slice containing the Bregma+˜0.2-+˜2.2 coordinates (FIG. 2C). From this tissue slice a blunted 12 G needle was used to punch dissect the NAc and dorsal striatum (DS) (FIG. 2D-2E) identified using the rat brain atlas (Panxinos and Watson 2nd edition). The PFC, hippocampus (Hip) and amygdala (Amyg) were then blunt dissected (FIG. 3A-3D). All regions were frozen in liquid nitrogen and stored at −80° C. until processed.
These treatment groups were used for the molecular assessment of addiction-linked markers.
Determination of protein concentration—a bicinchoninic acid assay (BCA, ThermoFisher) was conducted to determine the total protein concentration in tissue lysates following manufacturer's instructions. Briefly, bovine serum albumin (BSA) standards were prepared in a serial dilution (0-2.0 mg protein/ml) and 200 μl working reagent (50:1, reagent A: reagent B) was added to each of the standards and samples in a 96 well plate (Greiner). For tissue lysates a 1:10 dilution was performed with cell lysis buffer to ensure absorbance values lay within the working range established by the standards. All samples and standards were added in duplicate. The plate was covered and incubated for 30 mins at 37° C. before absorbance was read at 562 nm on a plate reader (SpectraMax M3). The absorbance values were used to form a standard curve of known protein concentrations and protein concentration of samples were derived using the equation of the line. All samples were standardized to the lowest protein concentration using distilled H20 (dH2O).
SDS-PAGE and Western Blotting—Following equalisation of protein concentrations, 6× sample loading buffer (15% SDS, 15% […], 50% glycerol, 0.01% bromophenol blue, […]) was added to each sample using a dilution factor of 1:5 of the total volumes before boiling at 100° C. for 5 mins. Samples were stored at −20° C. until use. One dimensional sodium-dodecyl-sulphate polyacrylamide gel electrophoresis (SDS-PAGE) was used for protein separation based on molecular weight. The percentage of acrylamide in the resolving or stacking gel was determined by the molecular weight of the protein of interest. In this instance all gels consisted of a 5% stacking gel and a 10% resolving gel with the exception of mGluR5, G9a (8%) and H3K9Me2 (12%). 20 μg of protein was loaded and resolved using SDS-PAGE. Gel electrophoresis was conducted at 80V while the protein was in the stacking gel, once it migrated to the resolving gel the voltage was increased to 120V and ran for 90 mins. Samples were transferred to a 0.45 μm polyvinylidene difluoride (PVDF) membrane (Analab) for 1 hour at 100V and blocked in 5% milk blocking solution made in tris-buffered saline containing tween®-20 (TBS-T, Sigma) for 90 mins. Primary antibodies (FIG. 5) were diluted in 5% BSA in TBS-T and incubated with membranes overnight at 4° C. or for 2 hours at room temperature. After incubation with primary antibodies the membranes were washed in TBS-T for 4×10 minutes before incubation with 1:2000 anti-rabbit and 1:2000 anti-mouse Alexa Fluro® conjugated secondary antibodies (Invitrogen) in 2% milk for 1 hour at room temperature. Membranes were washed in TBS-T for 4×10 minutes and in TBS for 1×10-minute wash. Proteins were visualized using Odyssey® infrared imaging system. Protein expression was quantified using Image Studio Lite (Version 5.2) and expression intensities were normalized to a house keeping protein, α-Tubulin or β-actin.

mGluR5 = assay: Western blot of mGluR5 in brain regions, chronic cocaine ± 5-MeO-DMT; format: in vivo, Male Wistar rats
Source text: as §1
as §2, with “The PFC, hippocampus (Hip) and amygdala (Amyg) were then blunt dissected (FIG. 3A-3D). All regions were frozen in liquid nitrogen and stored at −80° C. until processed.” left out
Determination of protein concentration—a bicinchoninic acid assay (BCA, ThermoFisher) was conducted to determine the total protein concentration in tissue lysates following manufacturer's instructions. […] For tissue lysates a 1:10 dilution was performed with cell lysis buffer to ensure absorbance values lay within the working range established by the standards. […] The plate was covered and incubated for 30 mins at 37° C. before absorbance was read at 562 nm on a plate reader (SpectraMax M3). The absorbance values were used to form a standard curve of known protein concentrations and protein concentration of samples were derived using the equation of the line. […]

5-HT2Rs = conditions: canonical signaling activity measured; read-out: affinity for the 5-HT2Rs; cited from earlier work

## COc1ccc2[nH]cc(CCN(C)C)c2c1 [5-MeO-DMT, 5-methoxy-N,N-dimethyltryptamine]
BDNF; PFC, cocaine+10 mg/kg 5-MeO-DMT relative to saline+vehicle
  BDNF expression: significant decrease in BDNF expression
BDNF; PFC, cocaine+20 mg/kg 5-MeO-DMT relative to saline+vehicle
  BDNF expression: significant decrease in BDNF expression
BDNF; hippocampus, any of the treatment groups
  BDNF expression: no change in BDNF expression
BDNF; hippocampus, 10 mg/kg 5-MeO-DMT alone
  BDNF levels: no effect alone
BDNF; hippocampus, 20 mg/kg 5-MeO-DMT alone
  BDNF levels: significant decrease in BDNF levels
BDNF; hippocampus, cocaine+10 mg/kg 5-MeO-DMT
  BDNF levels: does not affect the cocaine-induced decrease in expression levels
BDNF; hippocampus, cocaine+20 mg/kg 5-MeO-DMT
  BDNF levels: restores BDNF levels to those seen in the control group
mGluR5; PFC, 24 h, 20 mg/kg 5-MeO-DMT in saline treated animals
  mGluR5 expression: significant decrease in receptor expression
mGluR5; nucleus accumbens, 5-MeO-DMT, either tested concentration
  mGluR5 expression: no change
5-HT2Rs
  Ki: > 1000 nM
